Experimental data published in patent US11013745B2, “Triazolopyrimidine, triazolopyridine compounds, and the composition thereof for treating PRC2-mediated diseases” (SHANGHAI INSTITUTE OF MATERIA MEDICA, CHINESE ACADEMY OF …, priority 2017, dated 2021).

Tested on: Pfeiffer cells
Assay: Growth inhibition of Pfeiffer cells in a long term (14 days), CellTiter-Glo
Assay type: cell-based, Human
Details: Homo sapiens, 336 h, 14 days, read-out: Pfeiffer (14 days) IC50
How it was run: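 Pfeiffer DLBCL cells in RPMI 1640 with 10% FBS were treated for 14 days with a 9-point, three-fold compound series (final 0.003-20 μM or 0.3-2000 nM, 0.2% DMSO). Medium and compound were refreshed with cell dilution on days 4, 7 and 11. Viability was read by CellTiter-Glo luminescence, and IC50 values were calculated.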

IC50: 1 nM
SMILES: CS(=O)(=O)N1CC=C(c2cnc(NCc3c(F)ccc4c3CCO4)n3cnnc23)CC1 [E-Y13]
